Measured values from US20060241182A1, “Antibiotic, functional cosmetic and functional food containing levulinic acid and their derivatives” (priority 2001, published 2006).
Converted amounts (≈) assume the structure as drawn. Like-named read-outs stand apart in the source and are kept apart here.

How the values were obtained:
[1] = tested on: Pseudomonas aeruginosa KCTC 1636; test: microbe, parasite or virus in culture; settings: KCTC1636
Procedure: (§1) Staphylococcus aureus KCTC 1621, Pseudomonas aeroginosa KCTC 1636, methicillin-resistant Staphylococcus aureus, Vancomycin resistant Enterococcus and R-Pseudomonas aeroginosa were cultured in tryptic soy broth at 37° C. with shaking.
(§2) Wherein, all the bacteria were cultured for 12˜18 hours.
(§3) MIC of levulinic acid was measured on 96 well plates. Media and levulinic acid (200 mg/ml) mixed and diluted 1:2 fold serially. Dilutants were added on 96 well plate. Equal amount of bacterial suspension (10^6 CFU/ml) was added in each well. Wherein the inoculated bacteria were cultured at 30° C. for 12˜18 hours. The proliferations of bacteria on testing medium were measured to determine MIC against the test bacteria.

[2] = tested on: Resistant Pseudomonas aeruginosa; test: microbe, parasite or virus in culture
Procedure: as §1, §2, §3

[3] = tested on: Staphylococcus aureus KCTC 1621; test: microbe, parasite or virus in culture; settings: KCTC1621
Procedure: as §1, §2, §3

[4] = tested on: methicillin-resistant Staphylococcus aureus; test: microbe, parasite or virus in culture
Procedure: as §1, §2, §3

[5] = tested on: vancomycin-resistant Enterococcus; test: microbe, parasite or virus in culture
Procedure: as §1, §2, §3

Edwardsiella tarda GY-01 = test: microbe, parasite or virus in culture; settings: GY01
Procedure: (§4) Lactococcus garvieae YT-3, Edwardsiella tarda GY-01, Vibrio anguillarum YT-85805, Enterococcus faecium KCTC 3095 and tooth-decaying bacteria of Streptococcus spp. were cultured in Brain heart infusion media at 37° C. with shaking. Anaerobic tooth-decaying bacteria, Streptococcus spp., were cultured with standing in gas generating kit. Anaerobic Propionibacterium acnes KCTC 3326, was cultured in GAM media with standing in gas generating kit.
as §2, §3

[6] = tested on: Enterococcus faecium KCTC 3095; test: microbe, parasite or virus in culture; settings: KCTC3095
Procedure: as §4, §2, §3

[7] = tested on: Lactococcus garvieae YT-3; test: microbe, parasite or virus in culture; settings: YT3
Procedure: as §4, §2, §3

[8] = tested on: Vibrio anguillarum YT-85805; test: microbe, parasite or virus in culture; settings: YT85805
Procedure: as §4, §2, §3

[9] = tested on: Candida albicans KCTC 7753; test: microbe, parasite or virus in culture; settings: KCTC7753
Procedure: as §2, §3

[10] = tested on: Salmonella typhimurium KCTC 1925; test: microbe, parasite or virus in culture; settings: Salmonella enterica
Procedure: as §2, §3

Escherichia coli O157 = test: MIC of levulinic acid, serial dilution on 96 well plates; format: cell-based
Procedure: (§5) Also, Bacillus cereus KCTC 1014, Bacillus subtillis IFO 3007, Escherichia coli O 157 and Escherichia coli 1039 were cultured in complex media (0.8% of nutrient broth, 1% of yeast extract, 2% of NaCl and 0.02% of dextrose) at 37° C. with shaking.
as §2, §3

[11] = tested on: Bacillus cereus KCTC 1014; test: microbe, parasite or virus in culture; settings: KCTC1014
Procedure: as §5, §2, §3

[12] = tested on: Bacillus subtilis IF0 3007; test: microbe, parasite or virus in culture; settings: IF03007
Procedure: as §5, §2, §3

[13] = tested on: Escherichia coli KCTC 1039; test: microbe, parasite or virus in culture; settings: KCTC1039
Procedure: as §5, §2, §3

[14] = tested on: Hansenula anomala IFO 0149; test: microbe, parasite or virus in culture; settings: IFO0149
Procedure: (§6) Saccharomyces cerevisiae breneri hefe rasse VIII and Hansenula anomala IFO 0149 were cultured in complex medium (0.3% of yeast extract, 0.3% of nutrient broth, 0.5% of peptone and 0.1% of glucose) at 25° C. with shaking.
as §2, §3

[15] = tested on: Saccharomyces cerevisiae breneri heferasse VII; test: microbe, parasite or virus in culture
Procedure: as §6, §2, §3

[16] = tested on: Propionibacterium acnes KCTC 3326; test: microbe, parasite or virus in culture; settings: Cutibacterium acnes, KCTC3326
Procedure: as §4, §2, §3
(§7) Also, in case of anaerobic bacteria, according to the same method as above, cap tubes were used in place of 96 well plates.

[17] = tested on: Streptococcus doweni Mfe28; test: microbe, parasite or virus in culture
Procedure: as §4, §2, §3, §7

Streptococcus mutans BHT = test: microbe, parasite or virus in culture
Procedure: as §4, §2, §3, §7

[18] = tested on: Streptococcus mutans GS-5; test: microbe, parasite or virus in culture; settings: GS5
Procedure: as §4, §2, §3, §7

[19] = tested on: Streptococcus mutans HS-6; test: microbe, parasite or virus in culture; settings: HS6
Procedure: as §4, §2, §3, §7

[20] = tested on: Streptococcus mutans Ingbritt; test: microbe, parasite or virus in culture
Procedure: as §4, §2, §3, §7

[21] = tested on: Streptococcus mutans KCTC 3065; test: microbe, parasite or virus in culture; settings: KCTC3065
Procedure: as §4, §2, §3, §7

[22] = tested on: Streptococcus mutans LM-7; test: microbe, parasite or virus in culture; settings: LM7
Procedure: as §4, §2, §3, §7

[23] = tested on: Streptococcus mutans OMZ-175; test: microbe, parasite or virus in culture; settings: OMZ175
Procedure: as §4, §2, §3, §7

[24] = tested on: Streptococcus mutans OMZ-176; test: microbe, parasite or virus in culture; settings: OMZ176
Procedure: as §4, §2, §3, §7

[25] = tested on: Streptococcus salivarius ATCC 13419; test: microbe, parasite or virus in culture; settings: ATCC13419
Procedure: as §4, §2, §3, §7

[26] = tested on: Streptococcus sobrinus coykendall 6715-1 ATCC 27352; test: microbe, parasite or virus in culture; settings: ATCC27352
Procedure: as §4, §2, §3, §7

Helicobacter pylori = test: microbe, parasite or virus in culture
Procedure: as §2, §3, §7

[27] = tested on: mouse fibroblast NIH3T3 cells; settings: 52 hours
Procedure: Cytotoxicity test of levulinic acid was accomplished by using mouse fibroblast NIH3T3 cells as testing cells. The cells were cultured in medium added 16.3 mg/ml, 12.2 mg/ml, 9.8 mg/ml and 4.9 mg/ml of levulinic acid for 52 hours, respectively.

drug-resistant bacteria = settings: summary of Table 1
Procedure: as §1, §4, §2, §3

[28] = tested on: pathogen infecting finny tribe and poultry; settings: summary of Table 2
Procedure: as §4, §2, §3

tooth-decaying bacteria = settings: summary of Table 3
Procedure: as §4, §2, §3, §7

[29] = tested on: general bacteria and yeast; settings: summary of Table 4
Procedure: as §5, §6, §2, §3

CC(=O)CCC(=O)O [levulinic acid]
MIC [1]: 1500 µg/mL (≈ 12.9 mM)
MIC [2]: 2500 µg/mL (≈ 21.5 mM)
MIC [3]: 3500 µg/mL (≈ 30.1 mM)
MIC [4]: 4000 µg/mL (≈ 34.4 mM)
MIC [5]: 3000 µg/mL (≈ 25.8 mM)
MIC (Edwardsiella tarda GY-01): 3500 µg/mL (≈ 30.1 mM)
MIC [6]: 4500 µg/mL (≈ 38.8 mM)
MIC [7]: 3500 µg/mL (≈ 30.1 mM)
MIC [8]: 3000 µg/mL (≈ 25.8 mM)
MIC [9]: 6000 µg/mL (≈ 51.7 mM)
MIC [10]: 370 µg/mL (≈ 3.19 mM)
MIC (Escherichia coli O157): 2000 µg/mL
MIC [11]: 1500 µg/mL (≈ 12.9 mM)
MIC [12]: 1500 µg/mL (≈ 12.9 mM)
MIC [13]: 2000 µg/mL (≈ 17.2 mM)
MIC [14]: 3500 µg/mL (≈ 30.1 mM)
MIC [15]: 2500 µg/mL (≈ 21.5 mM)
MIC [16]: 6000 µg/mL (≈ 51.7 mM)
MIC [17]: 4000 µg/mL (≈ 34.4 mM)
MIC (Streptococcus mutans BHT): 4000 µg/mL (≈ 34.4 mM)
MIC [18]: 5000 µg/mL (≈ 43.1 mM)
MIC [19]: 4000 µg/mL (≈ 34.4 mM)
MIC [20]: 4000 µg/mL (≈ 34.4 mM)
MIC [21]: 4000 µg/mL (≈ 34.4 mM)
MIC [22]: 4000 µg/mL (≈ 34.4 mM)
MIC [23]: 4000 µg/mL (≈ 34.4 mM)
MIC [24]: 5000 µg/mL (≈ 43.1 mM)
MIC [25]: 4000 µg/mL (≈ 34.4 mM)
MIC [26]: 4000 µg/mL (≈ 34.4 mM)
MIC (Helicobacter pylori): 0.78 µg/mL (≈ 0.00672 mM)
Cytotoxicity: death / growth of the cells ([27]; medium added 9.8 mg/ml levulinic acid): not died, but their growth were inhibited
Cytotoxicity: growth of the cells versus control cells ([27]; medium containing 4.9 mg/ml levulinic acid): no difference from one of control cells
Cytotoxicity: death / growth of the cells ([27]; medium containing 12.2 mg/ml levulinic acid): died, or their growth were inhibited
Cytotoxicity: death / growth of the cells ([27]; medium containing 16.3 mg/ml levulinic acid): died, or their growth were inhibited
MIC against drug-resistant bacteria (range over Table 1) (drug-resistant bacteria): 1.5˜4.5 mg/ml
MIC against pathogen infecting finny tribe and poultry (range over Table 2) [28]: 0.37˜3.5 mg/ml
MIC against tooth-decaying bacteria (range over Table 3) (tooth-decaying bacteria): 4˜5 mg/ml
MIC against general bacteria and yeast (range over Table 4) [29]: 1.5˜6 mg/ml
